Marks after values point to notes of the source that are not given here.
Columns and labels:
[1] = Mortality, body weight, spleen and thymus indices in H22-bearing mice; type: in vivo, C57 mice; settings: sc H22 mice, cisplatin 3 mg/kg ip q3d
Protocol: A homogenate suspension of H22 hepatoma solid tumors was injected subcutaneously under the axilla of 50 healthy male C57 mice to create a solid tumor model. Once all mouse tumors averaged a volume of about 200 mm^3, mice were randomized into groups based on tumor volume and were administered the respective drugs or drug solvents via oral gavage or intraperitoneal injection for 22 consecutive days. Longest and shortest diameters of tumors were measured every three days to calculate tumor volume, and mouse weights were recorded every three days. At the end of the experiment, tumors, spleens, and thymuses were harvested and weighed to calculate tumor, spleen, and thymus indices.
(§1) Spleen and thymus organ coefficients: After the last dose, spleen, thymus, and tumor weights are measured, and organ coefficients are calculated.
(§2) Immune organ index (mg/g)=(organ mass/body weight)×1000.

[2] = Mortality, body weight, spleen and thymus indices in LLC-bearing mice; type: in vivo, C57 mice; settings: cisplatin 4 mg/kg ip q3d
Protocol: Healthy LLC cells were inoculated subcutaneously into the left shoulder of 5 healthy male C57 mice. Once tumors reached a volume of 2,000-3,000 mm^3, they were harvested and homogenized to prepare a homogenate suspension. This suspension was then injected subcutaneously into the axilla of 60 healthy male C57 mice to establish a solid tumor model. Once all mouse tumors averaged a volume of about 150 mm^3, mice were randomized into groups based on tumor volume and were administered the respective drugs or drug solvents via oral gavage or intraperitoneal injection for 19 consecutive days. Longest and shortest diameters of tumors were measured every three days to calculate tumor volume, and mouse weights were recorded every three days. At the end of the experiment, tumors, spleens, and thymuses were harvested and weighed to calculate tumor, spleen, and thymus indices.
as §1, §2

H22-bearing mice = assay: Antitumor effect of GLP-3 combined with chemotherapy on H22-bearing mice (tumor volume, inhibition rates, tumor index); type: in vivo, C57 mice; settings: sc H22 mice, cisplatin 3 mg/kg ip q3d
Protocol: (§3) Longest and shortest diameters of tumors were measured every three days to calculate tumor volume, and mouse weights were recorded every three days. At the end of the experiment, tumors, spleens, and thymuses were harvested and weighed to calculate tumor, spleen, and thymus indices. […] [table] […] Where TRTV is the relative tumor volume in the experimental group, and CRTV is the relative tumor volume in the model control group. Relative tumor volume (RTV)=Vt/V0, where Vt is the tumor volume on day t of dosing, and V0 is the tumor volume at the time of grouping. Evaluation criteria: […] Where T represents the average tumor weight in the treatment group, and C represents the average tumor weight in the model control group. Evaluation criteria: […] Tumor index (%)=(tumor weight/body weight)×100%.

[3] = Histopathological examination of liver, spleen and thymus in orthotopic H22-bearing mice; type: in vivo, C57 mice; settings: radiotherapy 2 Gy/d + cisplatin 4 mg/kg ip q3d
Text: Liver cancer (H22) cells, labeled with Luc fluorescent marker at a concentration of 1×10^7 cells/mL, were initially inoculated into the peritoneal cavity of 8 male C57 mice. After the development of ascites, the ascitic fluid was aseptically extracted, washed with HBSS buffer, centrifuged to discard the supernatant, and stained with Trypan Blue, and cells in the ascitic fluid were counted under a microscope. The cell concentration was adjusted to […] with HBSS buffer and inoculated into the right hepatic region of 80 male C57 mice, at a volume of 10 μL per mouse, to prepare the orthotopic tumor-bearing mice. One week later, the liver tumor formation in mice was detected using a small animal in vivo imaging system. […] An additional 10 mice served as the normal control group. Except for the normal control group, all other animals underwent radiotherapy using an animal radiotherapy instrument. The animals were anesthetized, placed in homemade lead clothing, and the tumor tissue was exposed for radiation treatment at an intensity of 2 Gy/day for 5 consecutive days. The normal control group and the model control group were administered pure water by oral gavage. […] After the last dose, blood was collected from the orbital plexus to test blood WBC, RBC, liver and kidney function indicators (ALT, AST, BUN, CRE), and CD3^+/CD4^+, CD3^+/CD8^+ ratios. […]

LLC-bearing mice = assay: Antitumor effect of GLP-3 combined with chemotherapy on LLC-bearing mice (tumor volume, inhibition rates, tumor index); type: in vivo, C57 mice; settings: cisplatin 4 mg/kg ip q3d
Protocol: as §3, with “Healthy LLC cells were inoculated subcutaneously into the left shoulder of 5 healthy male C57 mice. […] This suspension was then injected subcutaneously into the axilla of 60 healthy male C57 mice to establish a solid tumor model. […] Longest” for “Longest”

[4] = tested on: lymphocyte subtypes CD3^+/CD4^+ and CD3^+/CD8^+; assay: Blood CD3+/CD4+ and CD3+/CD8+ ratios by flow cytometry in orthotopic H22-bearing mice; type: in vivo, C57 mice; settings: radiotherapy 2 Gy/d + cisplatin 4 mg/kg ip q3d, after the last dose, Mean ± SEM
Protocol: CD4^+ and CD8^+ content measurement: After the last dose, lymphocyte subtypes CD3^+/CD4^+ and CD3^+/CD8^+ in the blood were measured using flow cytometry.

[5] = Mortality, body weight and organ coefficients in orthotopic H22-bearing mice; settings: radiotherapy 2 Gy/d + cisplatin 4 mg/kg ip q3d
Text: Liver cancer (H22) cells, labeled with Luc fluorescent marker at a concentration of 1×10^7 cells/mL, were initially inoculated into the peritoneal cavity of 8 male C57 mice. After the development of ascites, the ascitic fluid was aseptically extracted, washed with HBSS buffer, centrifuged to discard the supernatant, and stained with Trypan Blue, and cells in the ascitic fluid were counted under a microscope. The cell concentration was adjusted to […] with HBSS buffer and inoculated into the right hepatic region of 80 male C57 mice, at a volume of 10 μL per mouse, to prepare the orthotopic tumor-bearing mice. One week later, the liver tumor formation in mice was detected using a small animal in vivo imaging system. […] An additional 10 mice served as the normal control group. Except for the normal control group, all other animals underwent radiotherapy using an animal radiotherapy instrument. The animals were anesthetized, placed in homemade lead clothing, and the tumor tissue was exposed for radiation treatment at an intensity of 2 Gy/day for 5 consecutive days. The normal control group and the model control group were administered pure water by oral gavage. […] After the last dose, blood was collected from the orbital plexus to test blood WBC, RBC, liver and kidney function indicators (ALT, AST, BUN, CRE), and CD3^+/CD4^+, CD3^+/CD8^+ ratios. The spleen, thymus, and tumors were weighed to calculate organ coefficients, and the liver, spleen, and thymus underwent histopathological examination.
Animal survival and general condition: Weight was recorded weekly, along with any deaths among the animals.
Immune organs: The thymus, spleen, tumor, and liver were weighed, and organ coefficients were calculated as follows: organ coefficient (%)=organ weight/fasting body weight×100%.

[6] = tested on: orthotopic H22-bearing mice; assay: Tumor by small animal in vivo imaging, GLP-3 combined with radiotherapy, orthotopic H22-bearing mice; set-up: species or system C57 mice; settings: radiotherapy 2 Gy/d + cisplatin 4 mg/kg ip q3d
Protocol: This study used the proposed clinical dose as a basis for the experiment. The radiotherapy intensity for this study was designed to be 2 Gy per day. [table] Tumor volume measurement: Tumor volume changes were measured weekly using small animal in vivo imaging technology.

[7] = after the last dose, Mean ± SEM

## N.N.[Cl][Pt][Cl] [Cisplatin]
[1]; 22 days
  Mortality rate: 0.0%
  Number of deaths: 0
  Survival time: 22 ± 0 days
[1]; D0
  Weight: 18.9 ± 0.8^+ g
[1]; D3
  Weight: 19.9 ± 0.7 g
[1]; D6
  Weight: 19.5 ± 0.6^+ g
[1]; D9
  Weight: 19.6 ± 0.8 g
[1]; D12
  Weight: 19.5 ± 0.8^+ g
[1]; D15
  Weight: 19.2 ± 0.7^+ g
[1]; D18
  Weight: 18.5 ± 0.9^+ g
[1]; after the last dose
  Spleen index: 3.4 ± 0.3^+ mg/g
  Thymus index: 0.6 ± 0.1 mg/g
[2]; 19 days
  Mortality rate: 0.0%
  Number of deaths: 0
  Survival time: 19 ± 0 days
[2]; D0
  Weight: 21.5 ± 1.3 g
[2]; D3
  Weight: 20.9 ± 1.3^ g
[2]; D6
  Weight: 20.4 ± 1.9^+ g
[2]; D9
  Weight: 18.3 ± 2.6^+ g
[2]; D12
  Weight: 18.6 ± 2.8^+ g
[2]; D15
  Weight: 17.7 ± 2.7^+ g
[2]; D19
  Weight: 16.8 ± 2.8^+ g
[2]; after the last dose
  Spleen index: 2.84 ± 0.77^+ mg/g
H22-bearing mice; D0
  Tumor volume: 188.2 ± 48.7 mm^3
H22-bearing mice; D3
  Relative tumor growth inhibition rate (compared to model control group): 11.7%
  Tumor volume: 338.6 ± 69.1 mm^3
H22-bearing mice; D6
  Relative tumor growth inhibition rate (compared to model control group): 19.5%
  Tumor volume: 356.9 ± 77.9 mm^3
H22-bearing mice; D9
  Relative tumor growth inhibition rate (compared to model control group): 53.1^+ %
  Tumor volume: 598.5 ± 219.2^+ mm^3
H22-bearing mice; D9, listed as cisplatin
  Relative tumor growth inhibition rate (compared to model control group): 53.1%
H22-bearing mice; D12
  Relative tumor growth inhibition rate (compared to model control group): 64.4^+ %
H22-bearing mice; D12, listed as cisplatin
  Relative tumor growth inhibition rate (compared to model control group): 64.4%
H22-bearing mice; D15
  Relative tumor growth inhibition rate (compared to model control group): 73.1^+ %
  Tumor volume: 900.4 ± 376.4^+ mm^3
H22-bearing mice; D15, listed as cisplatin
  Relative tumor growth inhibition rate (compared to model control group): 73.1%
H22-bearing mice; D18
  Relative tumor growth inhibition rate (compared to model control group): 71.6^+ %
  Tumor volume: 1098.3 ± 397^+ mm^3
H22-bearing mice; D18, listed as cisplatin
  Relative tumor growth inhibition rate (compared to model control group): 71.6%
H22-bearing mice; D22
  Relative tumor growth inhibition rate (compared to model control group): 75.0^+ %
  Tumor volume: 1526.5 ± 535.7^+ mm^3
H22-bearing mice; D22, listed as cisplatin
  Relative tumor growth inhibition rate (compared to model control group): 75.0%
H22-bearing mice; after the last dose
  Tumor index: 6.6 ± 2.2^+ %
H22-bearing mice; by average tumor weight
  Tumor growth inhibition rate vs. the model control group: 75.7%
[3]
  Histopathology of liver, spleen and thymus: extensive H22 cell infiltration and necrosis were observed along with increased extramedullary hematopoiesis in the spleen and a decreased number of white pulp cells, with a reduction in thymic lymphocyte counts
LLC-bearing mice; D0
  Tumor volume: 137.9 ± 50^ mm^3
LLC-bearing mice; D3
  Relative tumor growth inhibition rate (compared to model control group): 4.3%
  Tumor volume: 300.1 ± 102.7 mm^3
LLC-bearing mice; D6
  Relative tumor growth inhibition rate (compared to model control group): 30.0%
  Tumor volume: 486.6 ± 188.9 mm^3
LLC-bearing mice; D9
  Relative tumor growth inhibition rate (compared to model control group): 54.6^+ %
  Tumor volume: 771.3 ± 256^+ mm^3
LLC-bearing mice; D9, listed as cisplatin
  Relative tumor growth inhibition rate (compared to model control group): 54.6%
LLC-bearing mice; D12
  Relative tumor growth inhibition rate (compared to model control group): 63.8^+ %
  Tumor volume: 1173.9 ± 488.8^+ mm^3
LLC-bearing mice; D12, listed as cisplatin
  Relative tumor growth inhibition rate (compared to model control group): 63.8%
LLC-bearing mice; D15
  Relative tumor growth inhibition rate (compared to model control group): 77.3^+ %
  Tumor volume: 1409.5 ± 820.5^+ mm^3
LLC-bearing mice; D15, listed as cisplatin
  Relative tumor growth inhibition rate (compared to model control group): 77.3%
LLC-bearing mice; D19
  Relative tumor growth inhibition rate (compared to model control group): 79.5^+ %
  Tumor volume: 1771.9 ± 1091.6^+ mm^3
LLC-bearing mice; D19, listed as cisplatin
  Relative tumor growth inhibition rate (compared to model control group): 79.5%
LLC-bearing mice; after the last dose
  Tumor index: 9.09 ± 4.19^+ %
LLC-bearing mice; by average tumor weight
  Tumor growth inhibition rate vs. the model control group: 74.4%
[4]
  CD3^+/CD4^+: 23.05 ± 12.70
  CD3^+/CD8^+: 126.56 ± 67.07
[5]; 14 days
  Mortality rate: 60%
  Number of deaths: 6
  Number of surviving animals: 4
[5]; W0, Mean ± SEM
  Weight: 17.1 ± 0.4^++ g
[5]; W1, Mean ± SEM
  Weight: 13.6 ± 0.9**^ g
[5]; W2, Mean ± SEM
  Weight: 14.6 ± 1.0 g
[5]; [7]
  Liver coefficient: 7.962 ± 0.914 %
  Spleen coefficient: 0.424 ± 0.140 %
  Thymus coefficient: 0.039 ± 0.017%
[6]; W 0, Mean ± SEM
  Tumor: 766250 ± 515323
[6]; W 1, Mean ± SEM
  Tumor: 5188000 ± 2224171

Source: patent US20250144130A1, “POLYSACCHARIDE COMPOUND WITH A DEFINED MOLECULAR STRUCTURE THAT CAN ELIMINATE THE TOXIC SIDE EFFECTS OF CHEMOTHERAPY DRUGS” (priority 2023, published 2025)
